biological target: T1, Pin1 (Homo sapiens, UniProt Q13526); test: Evaluation of Pin1 enzyme inhibitory activity (Sensolyte Green Pin1 assay kit); format: biochemical; settings: concentration at which the Pin1 enzyme activity is inhibited; 2 hours at room temperature, fluorescence 490 nm/520 nm; read-out: Pin 1 inhibition
T1 construct: purchased Anaspec
Description: In order to evaluate the Pin1 enzyme inhibitory activity of the compound represented by formula 1 according to the present invention, the following experiment was performed, and the results are shown in Table 2 below.
The enzyme activity of Pin1 protein was measured using a sensolyte Green Pin1 assay kit of Anaspec. The substrate was diluted in a buffer at a ratio of 1:100 to prepare a concentration of 1 μM, and the protein was diluted in a buffer at a ratio of 1:20 to prepare a concentration of 50 μg/ml. In addition, a developing solution was prepared by diluting thereof in a buffer at a ratio of 1:100.
The compound prepared in each example was diluted with DMSO and prepared at a concentration of 100 μM, 10 μM, 1 μM or 0.1 μM using a buffer. After sequentially adding 10 μl of the compound prepared in each Example diluted to four concentrations according to the above method, 10 μl of Pin1 protein, and 30 μl of the developing solution to each well of a black 96-well plate, […]. Finally, 50 μl of the substrate was added to each well of the plate, and the enzyme reaction was carried out after shaking the plate for 10 seconds.
Then, the plate was incubated for 2 hours at room temperature in an environment without light, and the fluorescence values at 490 nm/520 nm wavelength were measured using a device of Synergy Neo […]. The results are shown in Table 2 below by dividing the grades of A to D for each concentration (μM) at which the Pin1 enzyme activity is inhibited.

T1 sequence (Q13526 whole entry): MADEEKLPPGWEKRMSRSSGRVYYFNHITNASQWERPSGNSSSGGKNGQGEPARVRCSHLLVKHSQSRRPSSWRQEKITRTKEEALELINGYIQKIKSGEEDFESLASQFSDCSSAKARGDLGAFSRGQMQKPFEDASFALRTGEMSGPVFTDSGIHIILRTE

Row | IC50 [µM] | Compound
1 | 1 to 10 | COc1ccc2[nH]cc(CCCNS(=O)(=O)c3ccc(OCCCN4CCN(C)CC4)cc3)c2c1 [Example 68, N-(3-(5-methoxy-1H-indol-3-yl)propyl)-4-(3-(4-methylpiperazin-1-yl)propoxy)benzenesulfonamide]
2 | 1 to 10 | O=S(=O)(NCCCc1c[nH]c2ccc(Cl)cc12)c1ccc(Nc2cccc(N3CCNCC3)n2)cc1 [Example 132, N-(3-(5-chloro-1H-indol-3-yl)propyl)-4-((6-(piperazin-1-yl)pyridin-2-yl)amino)benzenesulfonamide]
3 | > 100 | CN(C)CCCOc1ccc(S(=O)(=O)NCCCc2ccccc2)cc1 [Example 15, 4-(3-(dimethylamino)propoxy)-N-(3-phenylpropyl)benzenesulfonamide]
4 | > 100 | CCCCOc1ccc(S(=O)(=O)NCCc2nc3ccccc3[nH]2)cc1 [Example 23]
5 | 1 to 10 | CN1CCN(CCCOc2ccc(S(=O)(=O)NCCCc3c[nH]c4ccccc34)cc2F)CC1 [Example 62, N-(3-(1H-indol-3-yl)propyl)-3-fluoro-4-(3-(4-methylpiperazin-1-yl)propoxy)benzenesulfonamide]
6 | > 100 | CN(C)CCCOc1ccc(S(=O)(=O)NCCc2ccccc2)cc1 [Example 14, 4-(3-(dimethylamino)propoxy)-N-phenethylbenzenesulfonamide]
7 | > 100 | COC(=O)c1ccc(CCNS(=O)(=O)c2ccc(OCCCN(C)C)cc2)cc1 [Example 16, methyl 4-(2-(4-(3-(dimethylamino)propoxy)phenylsulfonamido)ethyl)benzoate]
8 | 1 to 10 | CN1CCCN(c2cccc(Oc3ccc(S(=O)(=O)NCCCc4c[nH]c5ccc(Cl)cc45)cc3)c2)CC1 [Example 122, N-(3-(5-chloro-1H-indol-3-yl)propyl)-4-(3-(4-methyl-1,4-diazepan-1-yl)phenoxy)benzenesulfonamide]
9 | 1 to 10 | CC(C)(c1ccccc1NS(=O)(=O)c1ccc(OCCCN2CCNCC2)cc1)c1c[nH]c2ccc(Cl)cc12 [Example 182, N-(2-(2-(5-chloro-1H-indol-3-yl)propan-2-yl)phenyl)-4-(3-(piperazin-1-yl)propoxy)benzenesulfonamide]
10 | 1 to 10 | CN1CCN(CCCOc2ccc(S(=O)(=O)NC3CCCC(c4c[nH]c5ccc(Cl)cc45)C3)cc2)CC1 (stereo not shown) [Example 179, N-(3-(5-chloro-1H-indol-3-yl)cyclohexyl)-4-(3-(4-methylpiperazin-1-yl)propoxy)benzenesulfonamide]
11 | 10 to 100 | CN1CCN(CCCOc2ccc(S(=O)(=O)NCCc3c[nH]c4ccccc34)cc2)CC1 [Example 50, N-(2-(1H-indol-3-yl)ethyl)-4-(3-(4-methylpiperazin-1-yl)propoxy)benzenesulfonamide]
12 | 10 to 100 | CC(C)CCOc1ccc(S(=O)(=O)NCCCc2c[nH]c3ccccc23)cc1 [Example 26, N-(3-(1H-indol-3-yl)propyl)-4-(isopentyloxy)benzenesulfonamide]
13 | 1 to 10 | O=S(=O)(NCCCc1c[nH]c2ccc(F)cc12)c1ccc(OCCCN2CCCCC2)cc1 [Example 84, N-(3-(5-fluoro-1H-indol-3-yl)propyl)-4-(3-(piperidin-1-yl)propoxy)benzenesulfonamide]
14 | > 100 | CN1CCN(CCCOc2ccc(S(=O)(=O)NCCCn3ccc4ccccc43)cc2)CC1 [Example 41, N-(3-(1H-indol-1-yl)propyl)-4-(3-(4-methylpiperazin-1-yl)propoxy)benzenesulfonamide]
15 | 1 to 10 | O=S(=O)(NCCCc1c[nH]c2ccc(-c3ccccc3)cc12)c1ccc(OCCCN2CCNCC2)cc1 [Example 155, N-(3-(5-phenyl-1H-indol-3-yl)propyl)-4-(3-(piperazin-1-yl)propoxy)benzenesulfonamide]
16 | 1 to 10 | O=S(=O)(NCCCc1c[nH]c2ccc(Cl)cc12)c1ccc(Oc2cccc(N3CCCC3)c2)cc1 [Example 135, N-(3-(5-chloro-1H-indol-3-yl)propyl)-4-(3-(pyrrolidin-1-yl)phenoxy)benzenesulfonamide]
17 | 1 to 10 | O=S(=O)(NC1CCCC(c2c[nH]c3ccc(Cl)cc23)C1)c1ccc(OCCCN2CCNCC2)cc1 (stereo not shown) [Example 180, N-(3-(5-chloro-1H-indol-3-yl)cyclohexyl)-4-(3-(piperazin-1-yl)propoxy)benzenesulfonamide]
18 | 10 to 100 | CN1CCN(CCCOc2ccc(S(=O)(=O)Nc3cccc(-c4c[nH]c5ccccc45)c3)cc2)CC1 [Example 89, N-(3-(1H-indole-3-yl)phenyl)-4-(3-(4-methylpiperazine-1-yl)propoxy)benzenesulfonamide]
19 | 10 to 100 | CN1CCN(CCOc2ccc(S(=O)(=O)NCCCc3c[nH]c4ccccc34)cc2)CC1 [Example 52, N-(3-(1H-indol-3-yl)propyl)-4-(2-(4-methylpiperazin-1-yl)ethoxy)benzenesulfonamide]
20 | 1 to 10 | O=S(=O)(NCCCc1c[nH]c2ccc(F)cc12)c1ccc(OCCCN2CCN(CC(F)(F)F)CC2)cc1 [Example 74, N-(3-(5-fluoro-1H-indol-3-yl)propyl)-4-(3-(4-(2,2,2-trifluoroethyl)piperazin-1-yl)propoxy)benzenesulfonamide]
21 | 1 to 10 | CN1CCN(CCCOc2ccc(S(=O)(=O)Nc3ccccc3C(C)(C)c3c[nH]c4ccc(Cl)cc34)cc2)CC1 [Example 181, N-(2-(2-(5-chloro-1H-indole-3-yl)propane-2-yl)phenyl)-4-(3-(4-methylpiperazine-1-yl)propoxy)benzenesulfonamide]
22 | 1 to 10 | O=S(=O)(NCCCc1c[nH]c2ccc(Cl)cc12)c1ccc(Oc2cccc(N3CCCCC3)c2)cc1 [Example 120, N-(3-(5-chloro-1H-indol-3-yl)propyl)-4-(3-(piperidin-1-yl)phenoxy)benzenesulfonamide]
23 | 1 to 10 | O=S(=O)(NCCCc1c[nH]c2ccccc12)c1ccc(OCCCN2CCC(O)CC2)cc1 [Example 69, N-(3-(1H-indol-3-yl)propyl)-4-(3-(4-hydroxypiperidin-1-yl)propoxy)benzenesulfonamide]
24 | 1 to 10 | O=S(=O)(NCCCc1c[nH]c2ccc(Cl)cc12)c1ccc(OCCCN2CCN(CC(F)(F)F)CC2)cc1 [Example 76, N-(3-(5-chloro-1H-indol-3-yl)propyl)-4-(3-(4-(2,2,2-trifluoroethyl)piperazin-1-yl)propoxy)benzenesulfonamide]
25 | 10 to 100 | Cc1ccc2[nH]cc(C3CCN(S(=O)(=O)c4ccc(OCCCN5CCN(C)CC5)cc4)CC3)c2c1 [Example 65, 5-methyl-3-(1-((4-(3-(4-methylpiperazin-1-yl)propoxy)phenyl)sulfonyl)piperidin-4-yl)-1H-indole]
26 | 10 to 100 | CC(C)C(=O)N1CCN(CCCOc2ccc(S(=O)(=O)NCCCc3c[nH]c4ccc(F)cc34)cc2)CC1 [Example 73, N-(3-(5-fluoro-1H-indol-3-yl)propyl)-4-(3-(4-isobutyrylpiperazin-1-yl)propoxy)benzenesulfonamide]
27 | 10 to 100 | O=S(=O)(NCCCc1c[nH]c2ccccc12)c1ccc(OCCCN2CCCCC2)cc1 [Example 43, N-(3-(1H-indol-3-yl)propyl)-4-(3-(piperidin-1-yl)propoxy)benzenesulfonamide]

Row | Compound | IC50 [µM]
28 | CCCCOc1ccc(S(=O)(=O)NCCc2cc3ccccc3[nH]2)cc1 [Example 25, N-(2-(1H-indol-2-yl)ethyl)-4-butoxybenzenesulfonamide] | > 100
29 | CCCCOc1ccc(S(=O)(=O)NCCN2CCC(Cc3ccccc3)CC2)cc1 [Example 10, N-(2-(4-benzylpiperidin-1-yl)ethyl)-4-butoxybenzenesulfonamide] | > 100
30 | CCCCOc1ccc(S(=O)(=O)NCCCc2ccc(Cl)cc2)cc1 [Example 3, 4-butoxy-N-(3-(4-chlorophenyl)propyl)benzenesulfonamide] | > 100
31 | CCCCOc1ccc(S(=O)(=O)NCCc2ccc(C(=O)O)cc2)cc1 [Example 8, 4-(2-(4-butoxyphenylsulfonamido)ethyl)benzoic acid] | > 100
32 | CCCCOc1ccc(S(=O)(=O)NCCCc2c[nH]c3ccccc23)cc1 [Example 20, N-(3-(1H-indol-3-yl)propyl)-4-butoxybenzenesulfonamide] | 10 to 100
33 | CCCCOc1ccc(S(=O)(=O)NCCCn2ccc3ccccc32)cc1 [Example 32, N-(3-(1H-indol-1-yl)propyl)-4-butoxybenzenesulfonamide] | > 100
34 | CCCCOc1ccc(S(=O)(=O)NCCc2c[nH]c3ccccc23)cc1 [Example 24, N-(2-(1H-indol-3-yl)ethyl)-4-butoxybenzenesulfonamide] | > 100
35 | CCCCOc1ccc(S(=O)(=O)NCCCc2ccc(-c3ccccc3)cc2)cc1 [Example 1, N-(3-([1,1′-biphenyl]-4-yl)propyl)-4-butoxybenzenesulfonamide] | > 100
36 | CCCCOc1ccc(S(=O)(=O)NCCc2c[nH]c3ccc(O)cc23)cc1 [Example 29, 4-butoxy-N-(2-(5-hydroxy-1H-indol-3-yl)ethyl)benzenesulfonamide] | > 100
37 | CCCCOc1ccc(S(=O)(=O)NCCc2ccc(C(=O)OC)cc2)cc1 [Example 9, methyl 4-(2-(4-butoxyphenylsulfonamido)ethyl)benzoate] | > 100
